{
  "source": "patent US10441564B2",
  "about": "“Fructose analogs and their combinations as anti-cancer agents” (priority 2016, dated 2019)",
  "key": {"[1]": {"tested_on": "U937-SLC2A5 cells (overexpressing the fructose transporter SLC2A5)", "experiment": "malignant proliferation of AML cells U937-SLC2A5", "type": "cell-based", "conditions": "6 mM fructose or 6 mM fructose+0.75 mM glucose"}, "[2]": {"tested_on": "U937-SLC2A5 cells (overexpressing the fructose transporter SLC2A5)", "experiment": "colony formation of U937-SLC2A5 cells", "type": "cell-based", "conditions": "6 mM fructose or 6 mM fructose+0.75 mM glucose"}, "[3]": {"tested_on": "U937-SLC2A5 cells (overexpressing the fructose transporter SLC2A5)", "experiment": "cell migration of U937-SLC2A5 cells", "type": "cell-based", "conditions": "6 mM fructose or 6 mM fructose+0.75 mM glucose"}, "U937": {"tested_on": "U937", "experiment": "proliferation of AML cells U937", "type": "cell-based", "procedure": "(§1) In cell culture conditions with 6 mM fructose or 6 mM fructose+0.75 mM glucose, 2,5-AM could inhibit the proliferation of four AML cells, including U937, OCI-AML3, HL-60 and K562 cells."}, "OCI-AML3": {"tested_on": "OCI-AML3", "experiment": "proliferation of AML cells OCI-AML3", "type": "cell-based", "procedure": "as §1"}, "HL-60": {"tested_on": "HL-60", "experiment": "proliferation of AML cells HL-60", "type": "cell-based", "procedure": "as §1"}, "K562": {"tested_on": "K562", "experiment": "proliferation of AML cells K562", "type": "cell-based"}, "[4]": {"tested_on": "AML mice (murine leukemic cells with AML1-ETO and mutated C-KIT)", "experiment": "AML model mice", "type": "in vivo, BALB/c female mice", "procedure": "AML mice were generated using a previously reported procedure (Wang et al., 2011) with minor modifications. About 1×10^5 GFP-positive murine leukemic cells (splenic cells) with AML1-ETO and mutated C-KIT were injected into the tail vein of each sublethally irradiated (3.5 Gy), 8 week old BALB/c female mice. On day 5 after inoculation of AML cells, 2,5-AM was injected intraperitoneally at a dose of 150 mg/kg/day for continuous administration to mice. Control group AML mice were given saline injection according to the same dose and method.\nchemotherapeutic drug cytarabine on the treatment of AML model mice (Ara-C) was administered intraperitoneally at a dose of 25 mg/kg/day on the third day in the AML model mice (see example 3) for 3 days after AML cell inoculation. At the same time, mice were intraperitoneally injected with 2,5 AM at a dose of 150 mg/kg/day on day 5 after AML cell inoculation, until mice were dead. (2) Ara-C alone group: In the AML model mice of Example 3, Ara-C was injected intraperitoneally at a dose of 25 mg/kg/day on the third day after AML cell inoculation for 3 days."}, "PANC-1": {"tested_on": "PANC-1", "experiment": "fructose-induced proliferation of pancreatic cancer cells PANC-1", "type": "cell-based", "conditions": "6 mM fructose culture"}, "CFPAC-1": {"tested_on": "CFPAC-1", "experiment": "fructose-induced proliferation of pancreatic cancer cells CFPAC-1", "type": "cell-based", "conditions": "6 mM fructose culture"}, "BxPC-3": {"tested_on": "BxPC-3", "experiment": "fructose-induced proliferation of pancreatic cancer cells BxPC-3", "type": "cell-based", "conditions": "6 mM fructose culture"}, "HCT-15": {"tested_on": "HCT-15", "experiment": "malignant proliferation of colorectal cancer cells HCT-15", "type": "cell-based", "conditions": "6 mM fructose culture"}, "HCT-116": {"tested_on": "HCT-116", "experiment": "malignant proliferation of colorectal cancer cells HCT-116", "type": "cell-based", "conditions": "6 mM fructose culture"}, "AML cells": {"tested_on": "AML cells", "experiment": "fructose utilization in AML cells in vitro", "type": "cell-based", "conditions": "in vitro cell experiments", "description": "Enhanced fructose metabolism mediated by GLUTS exacerbates the malignant phenotype of AML cells, including increased cell proliferation, enhanced colony formation, and increased mobility and infiltration of AML cells (FIG. 3A-3D). […] Additionally 2,5-AM can kill AML cells in concert with conventional chemotherapeutic agents (FIG. 7A-7G)."}, "cancer cells": {"tested_on": "cancer cells", "experiment": "fructose and glucose utilization by cancer cells", "type": "cell-based", "description": "The present inventors have discovered, for the first time, the important role of GLUTS-mediated fructose metabolism in the malignant progression of cancer, and the close relationship with the prognosis of the cancer patients, through extensive and in-depth research and clinical data analysis. […] Furthermore, 2,5-AM may reverse the malignant phenotypes of AML cells by synergizing with conventional chemotherapeutic cytarabine or glucose analogue 2-deoxy-glucose (2-DG). […] Moreover, 2,5-AM and cytarabine in AML mice also have a significant synergistic effect. Through the above work, the present inventors have determined the administration of 2,5-AM to AML, pancreatic cancer, and colorectal cancer, including the dosage, the route of administration and the duration of administration; and the combined use of 2,5-AM and conventional chemotherapeutic agents or 2-DG methods for cancer treatment."}, "[5]": {"conditions": "6 mM fructose or 6 mM fructose+0.75 mM glucose"}, "[6]": {"conditions": "150 mg/kg/day intraperitoneally from day 5, compared with saline control group"}},
  "note": "Entries after “also recorded” stand apart in the source; their conditions may differ.",
  "data": [
    {"smiles": "OC[C@H]1O[C@H](CO)[C@@H](O)[C@@H]1O", "note": "[2,5-AM, 2,5-anhydro-D-mannitol]", "values": [
      {"measurement": "malignant proliferation of AML cells U937-SLC2A5", "setting": "[1]", "value": "significantly inhibited"},
      {"measurement": "colony formation", "setting": "[2]", "value": "significantly inhibited"},
      {"measurement": "cell migration", "setting": "[3]", "value": "significantly inhibited"},
      {"measurement": "malignant proliferation of U937", "setting": "U937; [5]", "value": "significantly inhibited; also recorded: could inhibit"},
      {"measurement": "cell proliferation of U937", "setting": "U937; 6 mM glucose", "value": "almost unaffected"},
      {"measurement": "malignant proliferation of OCI-AML3", "setting": "OCI-AML3; [5]", "value": "significantly inhibited; also recorded: could inhibit"},
      {"measurement": "cell proliferation of OCI-AML3", "setting": "OCI-AML3; 6 mM glucose", "value": "almost unaffected"},
      {"measurement": "malignant proliferation of HL-60", "setting": "HL-60; [5]", "value": "significantly inhibited; also recorded: could inhibit"},
      {"measurement": "cell proliferation of HL-60", "setting": "HL-60; 6 mM glucose", "value": "almost unaffected"},
      {"measurement": "malignant proliferation of K562", "setting": "K562; [5]", "value": "significantly inhibited; also recorded: could inhibit"},
      {"measurement": "cell proliferation of K562", "setting": "K562; 6 mM glucose", "value": "almost unaffected"},
      {"measurement": "bone marrow leukemia cells", "setting": "[4]; [6]", "value": "significantly inhibited"},
      {"measurement": "hemoglobin", "setting": "[4]; [6]", "value": "significantly increased"},
      {"measurement": "overall survival of mice", "setting": "[4]; [6]", "value": "significantly prolonged"},
      {"measurement": "peripheral blood leukemia cells", "setting": "[4]; [6]", "value": "significantly inhibited"},
      {"measurement": "peripheral blood red blood cell count", "setting": "[4]; [6]", "value": "significantly increased"},
      {"measurement": "peripheral white blood cells", "setting": "[4]; [6]", "value": "significantly inhibited"},
      {"measurement": "platelet count", "setting": "[4]; [6]", "value": "significantly increased"},
      {"measurement": "spleen enlargement", "setting": "[4]; [6]", "value": "significantly relieved"},
      {"measurement": "fructose utilization by AML cells in vivo", "setting": "[4]; mouse in vivo experiments", "value": "significantly inhibited"},
      {"measurement": "proliferation of PANC-1", "setting": "PANC-1", "value": "significantly inhibited"},
      {"measurement": "proliferation of CFPAC-1", "setting": "CFPAC-1", "value": "significantly inhibited"},
      {"measurement": "proliferation of BxPC-3", "setting": "BxPC-3", "value": "significantly inhibited"},
      {"measurement": "malignant proliferation of HCT-15", "setting": "HCT-15", "value": "significantly inhibited"},
      {"measurement": "malignant proliferation of HCT-116", "setting": "HCT-116", "value": "significantly inhibited"},
      {"measurement": "fructose utilization in AML cells", "setting": "AML cells", "value": "blocked"},
      {"measurement": "fructose utilization by cancer cells", "setting": "cancer cells", "value": "competitively inhibits"},
      {"measurement": "glucose utilization", "setting": "cancer cells", "value": "little effect"}
    ]}
  ]
}
